Measurements taken from patent US20240424010A1, “NICOTINAMIDE RIBOSIDE TRIOLEATES CHLORIDE, COMPOSITIONS CONTAINING THIS COMPOUND, AND METHODS OF MAKING AND USING THIS COMPOUND” (SOCIETE DES PRODUITS NESTLE S.A., priority 2021, published 2024).

Legend:
[1] = Stability of NRTOCl and NRCl in DI water at 35° C. for 28 days (released nicotinamide by HPLC); assay type: physicochemical
Method: Although NRTOCl is a quaternary ammonium salt, it was not dissolved in water due to the existence of three groups of oleate fatty ester in its structure. Therefore, for the stability study of NRTOCl, this compound was dispersed in DI water using 1% ethanol as a cosolvent. For this purpose, 15 mg of NRTOCl was dissolved in 0.15 ml of ethanol (1%) and then 14.85 ml of DI water was added to the mixture and gently shaken. […] Although the average size of NRTOCl in this sample was 192 nm, the images of TEM disclosed smaller particles with around 50 nm and oval and spherical shapes with aspect ratio close to unity (FIGS. 10A-10C). In the nanoparticles, the NRTOCl structures are stacked on top of each other layer-by-layer. The highly positive charge of NRTO makes the nanoparticles stable in the aqueous phase. After dispersion of NRTOCl in DI water, NRCl was dissolved in DI water, and the stability of these samples were studied at 35° C. for 28 days (FIG. 11). The concentration of each sample was 1000 ppm. As during the hydrolysis reaction of NRTO and NR, both of these compounds released nicotinamide (FIG. 12), and by measuring the released amount of nicotinamide in each sample with HPLC, the remaining amounts of NRTO and NR in each sample were calculated. During this study, any release of NR from NRTO sample was not detected. It signifies that the heavy ester groups in NRTO sample are not hydrolyzed during the time of stability study. Because this study was performed in DI water and the conditions were mild, the NRTO was hydrolyzed from its N-glycoside bond.

porcine pancreatin = tested on: porcine pancreatin
Method: In vitro digestion of NRTOCl in pure form and dissolved in MCT oil was investigated in the following procedures.
The buffer for simulated intestinal phase was prepared according to the following protocol.^29 Specifically, 60 mg of NRTOCl was dissolved in 0.3 mL ethanol and added to 10 g of a buffer solution containing 400 mg bile bovine. 0.75 mL of a CaCl2 solution (0.3 M) was added to this mixture, and the pH was adjusted around 7 by using HCl (1 M). Then, 400 mg of fresh porcine pancreatin was dispersed in 4 mL of buffer solution and added to the mixture. The sample was placed in an incubator (250 rpm) at 37°° C. for 30 minutes. Subsequently, the sample was taken out of the incubator to adjust the pH to around 7 and returned to the incubator for another 30 minutes. The incubation steps and adjusting pH were repeated every 30 minutes until 2 hours were over. For quenching the enzyme, the sample was placed in an ice bath, and then 1.5 mL of the sample was centrifuged at 14,000 rpm for 10 minutes. Finally, the aqueous phase was separated and filtered by a 0.22 μm filter for determination of released NR and nicotinamide.
60 mg of NRTOCl was dissolved in 150 mg of MCT oil to prepare 29% w/w NRTO in MCT oil. Aqueous phase was 10 g of the buffer solution containing 400 mg bile bovine. The oil phase was added to the aqueous phase and homogenized at […] for 150 seconds at room temperature. 0.75 mL of a CaCl2 solution (0.3 M) was added to this mixture, and the pH was adjusted around 7 by using HCl (1 M). Then, 400 mg of fresh porcine pancreatin was dispersed in 5 mL of buffer solution and added to the mixture. The sample was placed in an incubator (250 rpm) at 37° C. for 30 minutes. Then, the sample was taken out of the incubator to adjust the pH to around 7 (by NaOH 1 M) and returned to the incubator for another 30 minutes. The incubating and adjusting pH steps were repeated every 30 minutes until 2 hours were over. For quenching the enzyme, the sample was placed in an ice bath and then 1.5 mL of the sample was centrifuged at 14000 rpm for 10 min. Finally, the aqueous phase was separated and filtered by a 0.22 μm filter for determination of released NR and nicotinamide.
After the NRTOCl stability study in different conditions, the digestibility of this compound to produce NR in simulated intestinal fluid was studied. This enzymatic digestion used porcine pancreatin, bile bovine, and a buffer solution at pH around 7.^29 The lipase enzyme in porcine pancreatin can hydrolyze the fatty ester groups to produce NR, NRDO (nicotinamide riboside dioleates), NRMO (nicotinamide riboside monoleate) and oleic acid as the main products of digestion (FIG. 16). Moreover, nicotinamide (NAM) and ribose-trioleates (RTO) can be formed as the products of hydrolysis of NRTO not digestion. By considering this hypothesis, the NRTO digestion was studied in simulated intestinal phase.
At first, the digestion study was followed by dissolving pure NRTOCl (60 mg) in 0.3 mL of ethanol, and then this solution was added to 10 mL of buffer solution containing 400 mg of bile bovine to disperse NRTO in bile bovine solution. After that, 0.75 mL of CaCl2 solution (0.3M) was added to this mixture, and the pH was adjusted to 7.0 by adding HCl (1 M). […] The released NR and nicotinamide from the sample was measured by LC-MS and HPLC analyses.

release of NR from NRTO sample (ester hydrolysis) during stability study ([1]; DI water): not detected
remaining amount after 28 days ([1]; DI water, 1000 ppm, 28 days): 53.3%
times more stable than NRCl in water ([1]; 28 days): 88 times
times more stable than NRCl in water ([1]; 28 days, listed as NRTO): more than 88 times
NRTO completely digested (porcine pancreatin): at least 27.5%
digestibility to release NR (porcine pancreatin): digestible
nicotinamide detected (N-glycosidic bond hydrolysis) during digestion (porcine pancreatin): 3.9%
nicotinamide measured (N-glycosidic bond hydrolysis) during digestion (porcine pancreatin): 2.4%
ribose-trioleates formed during digestion (porcine pancreatin): 2.4%
Compound: CCCCCCCC/C=C\CCCCCCCC(=O)OC[C@H]1O[C@@H]([n+]2cccc(C(N)=O)c2)[C@H](OC(=O)CCCCCCC/C=C\CCCCCCCC)[C@@H]1OC(=O)CCCCCCC/C=C\CCCCCCCC.[Cl-] [NRTOCl, nicotinamide riboside trioleates chloride]
